Data reported in patent US12213963B2, “Topical formulation of disease-modifying antirheumatic drug (DMARDs) for the treatment of rheumatoid arthritis, melanoma, squamous cell carcinoma, atopic dermatitis, and psoriasis” (priority 2022, dated 2025).

Assay: Solubility of leflunomide in oils, surfactants and co-surfactants
Assay type: physicochemical
Method: Solubility of leflunomide was investigated in various oils, surfactants and co-surfactants. The selected excipients showing good solubility were further screened using turbidimetric method to check the emulsification efficiency of the system. Water titration method was used to select combination of oil, surfactant and co surfactant which provided clear systems with water. Briefly, the drug was dissolved in the oil by vortexing. Surfactant and co-surfactants were added to the oil phase and further titrated with water to check the ease of emulsification. The globule size of these systems was determined. Capryol® 90 and Capmul® PG2L were selected as the oil component. The solubility of the drug was highest in these oils and adequate to achieve the required drug loading. […] Out of the various gelling agents screened, Carbopol® 974P was selected because it formed uniform gel with good texture and consistency.

## Cc1oncc1C(=O)Nc1ccc(C(F)(F)F)cc1 [leflunomide]
  drug solubility in co-surfactant PEG 400: higher drug solubility
  drug solubility in surfactants Tween 20 and Kolliphor RH 40: high drug solubility
Compared with other oils screened
  solubility of the drug in oils Capryol 90 and Capmul PG2L: highest
